Measurements reported in article PMC11830721 (Frontiers in Pharmacology, 2025).

Tests used:
COLO 829BL cells = test: MTT assay, COLO 829BL (normal hematopoietic); format: cell-based; details: 2–64 μM
From the text: The human AML cell line MV4-11, which bears exclusive FLT3-ITD mutation genes, was purchased from the American Type Culture Collection (ATCC, Manassas, VA, United States), and the AML cell line NB4, a FLT3-wildtype cell line, was obtained from the China Center for Type Culture Collection (CCTCC, Wuhan, China). In addition, the normal hematopoietic cell line was COLO 829BL from ATCC. The cells were maintained in RPMI-1640 medium supplemented with 10% FBS, and 1% penicillin and streptomycin. The cells were cultured in an incubator at 37°C with 5% CO2. […] The high-performance liquid chromatography (HPLC) spectra data for each compound are provided in the (Supplementary Figures S1–S6). The FLT3-ITD mutant protein was purchased from Abcam (Cambridge, United Kingdom).
The effects of the test compounds on MV4-11, NB4, and COLO 829BL cell lines were quantitatively evaluated according to the methods previously reported ([Zhou et al., 2022]).
Subsequently, to further validate the specificity of FLIN-4 for cells expressing FLT3-ITD, we conducted MTT assays to assess the specificity and cytotoxicity of FLIN-4 within the concentration range of 2–64 μM on NB4 cells (harboring FLT3 wild-type) and COLO 829BL cells (representing normal hematopoietic cells). […]

[1] = test system: FLT3 signaling pathway (p-FLT3, p-STAT5, p-ERK) in MV4-11 cells; test: Western blot of FLT3 signaling pathway in MV4-11 cells; format: cell-based, human; details: 4 h, MV4-11, Western blot quantification
Description: The MV4-11 cell line was subjected to a 4 h exposure to varying concentrations of the FLIN-4 compound. Subsequent to this treatment, cellular lysis was conducted using RIPA lysis buffer (Sigma-Aldrich, United States) to isolate total cellular proteins. Subsequently, protein concentrations were precisely quantified using the BCA protein assay kit (Beyotime, Nantong, China). Western blot analysis was carried out in accordance with established methodologies ([Zhou et al., 2022]). The primary antibodies utilized in this study included: rabbit anti-FLT3 (21049−1-AP, Proteintech Group), rabbit anti-phospho-FLT3 (ab171975, Abcam), rabbit anti-Stat5 (#94205, CST), rabbit anti-Phospho-Stat5 (#4322, CST), rabbit anti-ERK (16443−1-AP, Proteintech Group), rabbit anti-phospho-ERK (28733−1-AP, Proteintech Group), and a rabbit anti-GAPDH antibody (10494−1-AP, Proteintech Group) served as an endogenous loading control.
To elucidate the impact of FLIN-4 on the FLT3 signaling cascade, we conducted a Western blot analysis in MV4-11 cells to evaluate the relative expression levels of pivotal phosphorylated proteins.

ALK = ALK (Homo sapiens, UniProt Q9UM73); test: SelectScreen kinase selectivity assay; format: biochemical; details: ten-dose 0.25–128 μM
Description: (§1) Following the standardized kinase activity assay protocol as previously reported, we utilized the SelectScreen Kinase Profiling Service (Thermo Fisher Scientific) to determine the kinase selectivity profile of FLIN-4 ([van der Wel et al., 2020]). Through a ten-dose dilution series ranging from 0.25 μM to 128 μM in dose-response experiments, we precisely measured the inhibitory effect of FLIN-4 on the substrate phosphorylation reactions catalyzed by a panel of kinases, and thus ascertained the half-maximal inhibitory concentrations (IC50) for each kinase.

AXL = AXL (Homo sapiens, UniProt P30530); test: SelectScreen kinase selectivity assay; format: biochemical; details: ten-dose 0.25–128 μM
Description: as §1

BMX = BMX (Homo sapiens, UniProt P51813); test: SelectScreen kinase selectivity assay; format: biochemical; details: ten-dose 0.25–128 μM
Description: as §1

DDR1 = DDR1 (Homo sapiens, UniProt Q08345); test: SelectScreen kinase selectivity assay; format: biochemical; details: ten-dose 0.25–128 μM
Description: as §1

DDR2 = DDR2 (Homo sapiens, UniProt Q16832); test: SelectScreen kinase selectivity assay; format: biochemical; details: ten-dose 0.25–128 μM
Description: as §1

EPHA1 = EPHA1 (Homo sapiens, UniProt P21709); test: SelectScreen kinase selectivity assay; format: biochemical; details: ten-dose 0.25–128 μM
Description: as §1

EPHA2 = EPHA2 (Homo sapiens, UniProt P29317); test: SelectScreen kinase selectivity assay; format: biochemical; details: ten-dose 0.25–128 μM
Chain of EPHA2 (P29317 24-976): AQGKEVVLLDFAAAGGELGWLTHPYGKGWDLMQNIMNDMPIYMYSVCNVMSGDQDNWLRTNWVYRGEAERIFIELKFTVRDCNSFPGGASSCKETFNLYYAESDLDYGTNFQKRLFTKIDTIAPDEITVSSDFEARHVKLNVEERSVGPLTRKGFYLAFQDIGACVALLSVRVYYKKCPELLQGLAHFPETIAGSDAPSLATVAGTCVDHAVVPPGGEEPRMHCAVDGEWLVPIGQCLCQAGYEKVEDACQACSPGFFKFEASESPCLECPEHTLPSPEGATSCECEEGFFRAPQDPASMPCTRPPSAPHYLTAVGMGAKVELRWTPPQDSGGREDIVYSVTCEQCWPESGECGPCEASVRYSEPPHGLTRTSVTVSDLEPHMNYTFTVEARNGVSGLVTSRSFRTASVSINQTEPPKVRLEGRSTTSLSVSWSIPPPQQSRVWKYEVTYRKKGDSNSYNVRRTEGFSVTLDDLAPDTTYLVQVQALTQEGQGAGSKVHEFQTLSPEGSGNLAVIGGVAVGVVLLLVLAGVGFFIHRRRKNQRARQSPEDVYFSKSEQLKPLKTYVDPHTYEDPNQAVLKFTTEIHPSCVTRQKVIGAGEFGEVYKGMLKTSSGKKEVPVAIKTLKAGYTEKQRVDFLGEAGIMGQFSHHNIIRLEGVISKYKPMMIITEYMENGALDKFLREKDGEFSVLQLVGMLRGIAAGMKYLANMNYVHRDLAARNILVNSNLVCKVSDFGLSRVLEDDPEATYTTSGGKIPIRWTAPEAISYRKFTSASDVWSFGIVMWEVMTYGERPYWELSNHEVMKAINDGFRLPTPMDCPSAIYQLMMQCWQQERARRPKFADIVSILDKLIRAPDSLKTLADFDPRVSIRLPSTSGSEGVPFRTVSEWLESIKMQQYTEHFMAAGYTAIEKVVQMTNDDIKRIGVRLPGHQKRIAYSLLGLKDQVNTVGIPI
Description: as §1

EPHA8 = EPHA8 (Homo sapiens, UniProt P29322); test: SelectScreen kinase selectivity assay; format: biochemical; details: ten-dose 0.25–128 μM
Description: as §1

EPHB1 = EPHB1 (Homo sapiens, UniProt P54762); test: SelectScreen kinase selectivity assay; format: biochemical; details: ten-dose 0.25–128 μM
Chain of EPHB1 (P54762 18-984): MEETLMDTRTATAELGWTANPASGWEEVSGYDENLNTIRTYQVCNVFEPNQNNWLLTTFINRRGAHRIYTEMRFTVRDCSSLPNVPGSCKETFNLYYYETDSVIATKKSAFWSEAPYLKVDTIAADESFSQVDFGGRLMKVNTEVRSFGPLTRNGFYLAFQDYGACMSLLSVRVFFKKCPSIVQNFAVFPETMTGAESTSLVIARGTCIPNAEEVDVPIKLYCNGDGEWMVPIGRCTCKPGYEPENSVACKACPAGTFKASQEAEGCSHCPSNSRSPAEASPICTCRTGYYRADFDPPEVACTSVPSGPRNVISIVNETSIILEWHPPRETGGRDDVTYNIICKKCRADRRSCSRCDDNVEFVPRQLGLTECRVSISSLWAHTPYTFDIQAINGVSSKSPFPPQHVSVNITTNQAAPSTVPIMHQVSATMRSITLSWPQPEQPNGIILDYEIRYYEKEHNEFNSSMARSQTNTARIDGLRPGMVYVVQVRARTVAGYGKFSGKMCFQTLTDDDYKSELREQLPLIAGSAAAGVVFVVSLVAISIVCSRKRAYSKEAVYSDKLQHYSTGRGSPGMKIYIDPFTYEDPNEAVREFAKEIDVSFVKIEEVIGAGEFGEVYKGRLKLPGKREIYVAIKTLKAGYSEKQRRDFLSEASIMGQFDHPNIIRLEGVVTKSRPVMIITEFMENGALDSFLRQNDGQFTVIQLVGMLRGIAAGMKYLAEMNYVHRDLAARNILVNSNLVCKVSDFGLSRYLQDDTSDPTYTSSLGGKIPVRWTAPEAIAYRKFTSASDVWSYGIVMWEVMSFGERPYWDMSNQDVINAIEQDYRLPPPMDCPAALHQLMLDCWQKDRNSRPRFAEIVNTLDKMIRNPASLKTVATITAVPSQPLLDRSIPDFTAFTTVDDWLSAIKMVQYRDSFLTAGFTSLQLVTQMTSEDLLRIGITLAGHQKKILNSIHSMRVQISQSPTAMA
Description: as §1

EPHB3 = EPHB3 (Homo sapiens, UniProt P54753); test: SelectScreen kinase selectivity assay; format: biochemical; details: ten-dose 0.25–128 μM
Description: as §1

ERBB2 = ERBB2 (Homo sapiens, UniProt P04626); test: SelectScreen kinase selectivity assay; format: biochemical; details: ten-dose 0.25–128 μM
Description: as §1

FES = FES (Homo sapiens, UniProt P07332); test: SelectScreen kinase selectivity assay; format: biochemical; details: ten-dose 0.25–128 μM
Description: as §1

FGFR2 = FGFR2 (Homo sapiens, UniProt P21802); test: SelectScreen kinase selectivity assay; format: biochemical; details: ten-dose 0.25–128 μM
Chain of FGFR2 (P21802 22-821): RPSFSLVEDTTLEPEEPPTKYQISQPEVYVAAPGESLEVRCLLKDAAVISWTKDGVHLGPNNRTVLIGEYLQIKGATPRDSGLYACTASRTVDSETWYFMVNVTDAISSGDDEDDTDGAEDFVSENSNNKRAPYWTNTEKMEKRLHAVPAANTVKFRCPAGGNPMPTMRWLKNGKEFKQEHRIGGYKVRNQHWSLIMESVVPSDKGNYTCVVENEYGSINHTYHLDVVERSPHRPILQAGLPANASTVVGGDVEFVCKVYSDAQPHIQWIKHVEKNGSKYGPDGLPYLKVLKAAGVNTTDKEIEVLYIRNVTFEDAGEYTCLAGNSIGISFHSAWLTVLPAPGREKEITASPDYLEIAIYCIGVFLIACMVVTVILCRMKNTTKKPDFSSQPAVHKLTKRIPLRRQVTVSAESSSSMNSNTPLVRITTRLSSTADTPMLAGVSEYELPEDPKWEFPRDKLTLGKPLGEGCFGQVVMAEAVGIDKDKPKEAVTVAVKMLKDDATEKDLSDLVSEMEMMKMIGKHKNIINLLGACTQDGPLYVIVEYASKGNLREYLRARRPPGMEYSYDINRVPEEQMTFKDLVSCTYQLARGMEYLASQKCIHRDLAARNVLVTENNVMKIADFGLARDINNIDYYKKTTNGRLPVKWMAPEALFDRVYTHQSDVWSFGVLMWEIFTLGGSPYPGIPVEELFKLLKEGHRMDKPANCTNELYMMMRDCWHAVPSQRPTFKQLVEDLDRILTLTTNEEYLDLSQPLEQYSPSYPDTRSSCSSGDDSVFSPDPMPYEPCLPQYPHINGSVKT
Description: as §1

FGFR4 = FGFR4 (Homo sapiens, UniProt P22455); test: SelectScreen kinase selectivity assay; format: biochemical; details: ten-dose 0.25–128 μM
Description: as §1

FGR = FGR (Homo sapiens, UniProt P09769); test: SelectScreen kinase selectivity assay; format: biochemical; details: ten-dose 0.25–128 μM
Description: as §1

HCK = HCK (Homo sapiens, UniProt P08631); test: SelectScreen kinase selectivity assay; format: biochemical; details: ten-dose 0.25–128 μM
Chain of HCK (P08631 whole entry): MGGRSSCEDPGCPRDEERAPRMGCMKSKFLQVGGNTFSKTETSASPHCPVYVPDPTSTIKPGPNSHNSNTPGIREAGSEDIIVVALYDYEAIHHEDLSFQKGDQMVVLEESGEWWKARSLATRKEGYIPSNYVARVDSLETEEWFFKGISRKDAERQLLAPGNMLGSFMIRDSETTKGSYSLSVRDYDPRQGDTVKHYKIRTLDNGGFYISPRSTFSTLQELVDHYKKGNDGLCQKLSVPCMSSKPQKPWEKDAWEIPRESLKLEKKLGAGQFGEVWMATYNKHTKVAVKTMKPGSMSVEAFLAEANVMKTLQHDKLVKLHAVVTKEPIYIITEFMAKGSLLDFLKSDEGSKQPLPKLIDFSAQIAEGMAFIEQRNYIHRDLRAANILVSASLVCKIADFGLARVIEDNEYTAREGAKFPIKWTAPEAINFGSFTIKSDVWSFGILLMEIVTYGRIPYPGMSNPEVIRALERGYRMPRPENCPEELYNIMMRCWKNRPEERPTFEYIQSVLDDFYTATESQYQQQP
Description: as §1

JAK1 = JAK1 (Homo sapiens, UniProt P23458); test: SelectScreen kinase selectivity assay; format: biochemical; details: ten-dose 0.25–128 μM
Description: as §1

LTK = LTK (Homo sapiens, UniProt P29376); test: SelectScreen kinase selectivity assay; format: biochemical; details: ten-dose 0.25–128 μM
Description: as §1

MERTK = MERTK (Homo sapiens, UniProt Q12866); test: SelectScreen kinase selectivity assay; format: biochemical; details: ten-dose 0.25–128 μM
Description: as §1

PIM1 = PIM1 (Homo sapiens, UniProt P11309); test: SelectScreen kinase selectivity assay; format: biochemical; details: ten-dose 0.25–128 μM
Chain of PIM1 (P11309 whole entry): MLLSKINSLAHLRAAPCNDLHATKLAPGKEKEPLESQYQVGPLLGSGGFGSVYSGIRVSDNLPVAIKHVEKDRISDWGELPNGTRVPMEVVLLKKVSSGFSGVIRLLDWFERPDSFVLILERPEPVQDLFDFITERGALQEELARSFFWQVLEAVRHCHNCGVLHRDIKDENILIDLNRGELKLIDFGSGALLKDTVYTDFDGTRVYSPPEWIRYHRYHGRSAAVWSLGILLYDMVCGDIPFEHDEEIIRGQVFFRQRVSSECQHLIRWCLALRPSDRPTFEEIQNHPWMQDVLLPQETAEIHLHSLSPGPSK
Description: as §1

PLK1 = PLK1 (Homo sapiens, UniProt P53350); test: SelectScreen kinase selectivity assay; format: biochemical; details: ten-dose 0.25–128 μM
Description: as §1

TYRO3 = TYRO3 (Homo sapiens, UniProt Q06418); test: SelectScreen kinase selectivity assay; format: biochemical; details: ten-dose 0.25–128 μM
Chain of TYRO3 (Q06418 41-890): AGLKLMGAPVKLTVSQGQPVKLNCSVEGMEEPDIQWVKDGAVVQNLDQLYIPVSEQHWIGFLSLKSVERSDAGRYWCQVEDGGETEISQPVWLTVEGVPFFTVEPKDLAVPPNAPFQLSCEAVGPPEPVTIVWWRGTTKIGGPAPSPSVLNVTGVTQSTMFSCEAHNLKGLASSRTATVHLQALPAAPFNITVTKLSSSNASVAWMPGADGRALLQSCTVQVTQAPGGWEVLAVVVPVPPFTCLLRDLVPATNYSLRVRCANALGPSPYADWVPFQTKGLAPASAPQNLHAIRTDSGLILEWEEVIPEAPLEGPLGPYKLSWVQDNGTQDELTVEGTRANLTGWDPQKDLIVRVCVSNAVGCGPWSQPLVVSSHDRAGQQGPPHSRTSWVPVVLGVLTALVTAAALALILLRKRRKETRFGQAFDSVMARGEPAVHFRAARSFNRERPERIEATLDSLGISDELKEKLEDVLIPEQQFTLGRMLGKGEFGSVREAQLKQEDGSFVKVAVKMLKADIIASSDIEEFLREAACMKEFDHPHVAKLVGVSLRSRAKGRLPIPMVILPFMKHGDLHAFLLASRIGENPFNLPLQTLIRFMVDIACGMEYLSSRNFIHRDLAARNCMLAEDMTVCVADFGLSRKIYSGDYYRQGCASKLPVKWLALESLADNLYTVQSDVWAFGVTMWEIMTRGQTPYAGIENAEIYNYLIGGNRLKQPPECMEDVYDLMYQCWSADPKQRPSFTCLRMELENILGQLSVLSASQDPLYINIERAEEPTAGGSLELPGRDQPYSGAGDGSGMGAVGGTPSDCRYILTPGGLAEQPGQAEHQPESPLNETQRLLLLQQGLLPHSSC
Description: as §1

YES1 = YES1 (Homo sapiens, UniProt P07947); test: SelectScreen kinase selectivity assay; format: biochemical; details: ten-dose 0.25–128 μM
Chain of YES1 (P07947 whole entry): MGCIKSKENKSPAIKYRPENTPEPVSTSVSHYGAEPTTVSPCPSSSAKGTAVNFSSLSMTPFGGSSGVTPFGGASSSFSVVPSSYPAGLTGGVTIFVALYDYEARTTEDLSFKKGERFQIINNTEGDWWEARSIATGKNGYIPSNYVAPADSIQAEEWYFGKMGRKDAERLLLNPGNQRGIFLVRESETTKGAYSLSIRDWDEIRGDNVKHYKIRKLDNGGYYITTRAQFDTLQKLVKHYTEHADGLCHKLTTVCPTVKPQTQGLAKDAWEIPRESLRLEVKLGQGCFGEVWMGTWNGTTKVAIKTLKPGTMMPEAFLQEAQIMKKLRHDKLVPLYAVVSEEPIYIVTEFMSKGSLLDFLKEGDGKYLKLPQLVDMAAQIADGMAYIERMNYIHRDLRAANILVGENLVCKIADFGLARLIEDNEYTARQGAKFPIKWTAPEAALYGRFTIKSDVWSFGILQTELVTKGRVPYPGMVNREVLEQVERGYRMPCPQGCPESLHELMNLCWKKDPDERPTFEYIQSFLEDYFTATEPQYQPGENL
Description: as §1

**Q.** How did the “Survival rate of COLO 829BL cells” value (COLO 829BL cells) turn out when `CCc1nc(C(N)=O)c(Nc2ccc(N3CCC(Nc4ccccc4)CC3)c(OC)c2)nc1NC1CCOC(C(O)CO)C1` (stereo not drawn) [FLIN-4] was run?
**A.** did not induce any significant changes in the survival rates

**Q.** And the p-ERK/ERK expression level ([1]; 3 nM)?
**A.** significant diminution

**Q.** And the p-FLT3/FLT3 expression level ([1]; 3 nM)?
**A.** significant diminution

**Q.** What about the p-STAT5/STAT5 expression level ([1]; 3 nM) of the same compound?
**A.** significant diminution

**Q.** And the p-ERK/ERK expression level ([1]; 30 nM)?
**A.** exacerbated decrease

**Q.** What about the p-FLT3/FLT3 expression level ([1]; 30 nM) of the same compound?
**A.** exacerbated decrease

**Q.** And the p-STAT5/STAT5 expression level ([1]; 30 nM)?
**A.** exacerbated decrease

**Q.** And the IC50 (ALK)?
**A.** > 10 µM

**Q.** What about the IC50 (AXL) of the same compound?
**A.** > 10 µM

**Q.** And the IC50 (BMX)?
**A.** > 10 µM

**Q.** And the IC50 (DDR1)?
**A.** > 10 µM

**Q.** What about the IC50 (DDR2) of the same compound?
**A.** > 10 µM

**Q.** And the IC50 (EPHA1)?
**A.** > 10 µM

**Q.** And the IC50 (EPHA2)?
**A.** > 10 µM

**Q.** What about the IC50 (EPHA8) of the same compound?
**A.** > 10 µM

**Q.** And the IC50 (EPHB1)?
**A.** > 10 µM

**Q.** What about the IC50 (EPHB3) of the same compound?
**A.** > 10 µM

**Q.** And the IC50 (ERBB2)?
**A.** > 10 µM

**Q.** What about the IC50 (FES) of the same compound?
**A.** > 10 µM

**Q.** What about the IC50 (FGFR2) of the same compound?
**A.** > 10 µM

**Q.** And the IC50 (FGFR4)?
**A.** > 10 µM

**Q.** And the IC50 (FGR)?
**A.** > 10 µM

**Q.** What about the IC50 (HCK) of the same compound?
**A.** > 10 µM

**Q.** And the IC50 (JAK1)?
**A.** > 10 µM

**Q.** And the IC50 (LTK)?
**A.** > 10 µM

**Q.** What about the IC50 (MERTK) of the same compound?
**A.** > 10 µM

**Q.** What about the IC50 (PIM1) of the same compound?
**A.** > 10 µM

**Q.** And the IC50 (PLK1)?
**A.** > 10 µM

**Q.** What about the IC50 (TYRO3) of the same compound?
**A.** > 10 µM

**Q.** What about the IC50 (YES1) of the same compound?
**A.** > 10 µM
